Assays:
[1] = tested on: polymerized/free Actin in Sertoli cells; assay: G-Actin/F-actin polymerization test (ultracentrifugation, Western blot); format: cell-based, SD rat; details: after PFOS treatment
Text: (§1) A total of 10 male SD rats at the age of 20 days were sacrificed and testes were collected. The testicular envelope and free seminiferous tubules were removed, and the remaining tissue was cut to 1 mm^3 with scissors and then digested successively with trypsin, protease inhibitor, collagenase, hyaluronidase, and other enzymes. Cell masses obtained from digestion were pipetted up and down with a glass Pasteur pipette and then subjected to density gradient centrifugation, and finally the volume of precipitated cells was measured and converted into the number of cells. Finally, the cells were cultivated in an F12/DMEM cell culture medium with human transferrin (5 μg/mL), bovine insulin (10 μg/mL), bacitracin (5 μg/mL), epithelial growth factor (EGF) (2.5 ng/mL), and the like. The cells were cultivated at 5% CO2 and 35° C. to obtain primary Sertoli cells.
Isolation and cultivation of cells were conducted according to the method in Example 2, and obtained cells were inoculated in a prepared 6-well plate. Cells in each group were collected immediately after the experiment ended. Related Actin and Tubulin polymerization tests were conducted on cells in the DEP peptide overexpression group and cells in the empty plasmid transfection group using G-Actin/F-actin polymerization detection kit (G-Actin/F-actin In Vivo Assay Biochem Kit, BK037, Cytoskeleton, Inc) and Microtubule/Tubulin polymerization detection kit (Microtubule/Tubulin In Vivo Assay Biochem Kit, BK038, Cytoskeleton, Inc). Related detection methods can refer to product descriptions. The main purpose of these tests is to separate polymerized cytoskeleton proteins (F-actin and Microtubule) and free monomeric cytoskeleton proteins (G-actin and Tubulin) in a cell lysate by ultracentrifugation. Then the polymerized cytoskeleton protein (a precipitate obtained from the ultracentrifugation) and the monomeric cytoskeleton protein (a supernatant obtained from the ultracentrifugation) in the cell lysate system were detected separately by Western blot. […]

[2] = tested on: polymerized/free Tubulin in Sertoli cells; assay: Microtubule/Tubulin polymerization test (ultracentrifugation, Western blot); format: cell-based, SD rat; details: after PFOS treatment
Text: as §1
Isolation and cultivation of cells were conducted according to the method in Example 2, and obtained cells were inoculated in a prepared 6-well plate. Cells in each group were collected immediately after the experiment ended. […] Then the polymerized cytoskeleton protein (a precipitate obtained from the ultracentrifugation) and the monomeric cytoskeleton protein (a supernatant obtained from the ultracentrifugation) in the cell lysate system were detected separately by Western blot. […]

[3] = cited from earlier work
Sertoli cells = assay: IF staining of tight junction-associated protein ZO-1 in Sertoli cells in vitro; format: cell-based, SD rat; details: PFOS 20 μM for 24 h, empty plasmid transfection group, day 6, vs blank control group
Text: as §1, with “Sertoli cells. […]” for “Sertoli cells.”
In order to observe the tight junction morphology among Sertoli cells cultivated in vitro, IF staining (green fluorescent) was conducted using an antibody for the Sertoli cell tight junction-associated protein ZO-1 (ThermoFisher, 61-7300), and the nucleus was stained with DAPI (blue fluorescence) after the above staining. After mounting, a fluorescence microscope was used to observe and take pictures.

[4] = pCI-neo empty plasmid transfection group

In the case of `O=S(=O)(O)C(F)(F)C(F)(F)C(F)(F)C(F)(F)C(F)(F)C(F)(F)C(F)(F)C(F)(F)F` [PFOS, Perfluorooctane sulphonate], the “F-actin level (precipitate of ultracentrifugation, Western blot)” value [1, 4] is given as “low, which was almost comparable to that in the negative control group”, the “Microtubule level (precipitate of ultracentrifugation, Western blot)” value [2, 4] is given as “low, which was almost comparable to that in the negative control group” and the human metabolic half-life [3] is given as “more than 5 years”. The “cell-cell junction interface (ZO-1 IF staining)” value (Sertoli cells) was “significantly damaged”.

B1: DEP peptide: Dvl3-DEP peptide with amino acid sequence SEQ ID NO. 1, overexpressed in Sertoli cells (protein)
chain: PESGLEVRDRMWLKITIPNAFIGSDVVDWLYHNVEGFTDRREARKYASNLLKAGFIRHTVNKITFSEQCYYIFGD
modifications: amino acid sequence of Dvl3-DEP peptide
notes: 1, overexpressed in Sertoli cells
With B1 the “F-actin level (precipitate of ultracentrifugation, Western blot)” value ([1]; DEP peptide overexpression group, positive control 0.1 uM phalloidin) was “lower than that in the positive control group but significantly higher than that in the empty plasmid transfection group”, the “free G-actin content in the cell lysate supernatant (Western blot)” value ([1]; empty plasmid transfection group vs DEP peptide overexpression group) was “empty plasmid transfection group was higher than that of the DEP peptide overexpression group” and the “Microtubule level (precipitate of ultracentrifugation, Western blot)” value ([2]; DEP peptide overexpression group, positive control 20 uM paclitaxel) was “lower than that in the positive control group but significantly higher than that in the empty plasmid transfection group”.

Reference: US20220193189A1, “USE OF Dvl3-DEP PEPTIDE IN PREPARATION OF MEDICAMENT FOR REPAIRING SERTOLI CELL INJURY IN TESTES” (The Second Affiliated Hospital and Yuying Children's …, priority 2020, published 2022)
